Experimental data reported in publication PMC8329197, “Compounds targeting OSBPL7 increase ABCA1-dependent cholesterol efflux preserving kidney function in two models of kidney disease” (Nature Communications, 2021).
Where “and” joins values, the source holds several entries; their conditions need not be identical. Identical values can stand only once.

Tests used:
[1] = system: Adriamycin (ADR)-induced nephropathy in Balb/c mice; assay: ADR nephropathy: WBC, hemoglobin, hematocrit, ALT, AST; type: in vivo, mouse; settings: ADR-induced nephropathy
[2] = system: Adriamycin (ADR)-induced nephropathy in Balb/c mice; assay: Adriamycin-induced nephropathy, main study: albumin/creatinine ratio and body weight
[3] = system: Adriamycin (ADR)-induced nephropathy in Balb/c mice; assay: ADR nephropathy: kidney cortex lipids (cholesterol ester, total cholesterol, triglycerides, Oil-red O); type: in vivo, mouse
Protocol: OCT embedded kidney cortex samples were cryosectioned at 4 μm thickness and stained with Oil-Red O-isopropanol solution (Electron Microscopy Science, PA) diluted 6:4 in water, and then counterstained with Hematoxylin Harris Hg Free (VWR, PA). Sections were then evaluated using a light microscope (Olympus BX 41, Tokyo, Japan).
Snap frozen kidney cortex samples were homogenized in 2 mM potassium phosphate buffer, pH 7, (10 µl buffer/mg tissue) using a glass douncer on ice. 100 μl of the homogenate were mixed thoroughly with 1 ml of hexane:isopropanol (3:2;v:v) per volume of tissue homogenate. The aqueous (pellet) and organic (supernatant) phases were separated by centrifugation at 12,000 × g for 5 min. Pellets (aqueous phase) were dried, reconstituted in 8 M urea, 0.1% SDS, 0.1 M NaOH, and total proteins were quantified by the BCA method (Thermofisher). The organic phase was dried by exposure to nitrogen. Lipids were then reconstituted in 100 µl isopropanol:NP-40 (9:1;v:v). Triglyceride content was assayed using a colorimetric kit according to the manufacturer’s instructions (Cayman Chemical USA). Total cholesterol and CE content were assayed using an enzymatic fluorometric method. For total cholesterol measurement, extracts were diluted 1:100 in assay buffer (100 mM potassium phosphate, 50 mM NaCl, 5 mM cholic acid, 0.1% Triton […], pH 7.4) containing cholesterol oxidase (1 U/ml), cholesterol esterase (1 U/ml), horseradish peroxidase (1 U/ml), and Amplex Red (75 µM). The reactions were incubated at 37 °C for 30 min in a black opaque 96-well plate (Greiner) and fluorescence was measured in a microplate reader (Spectramax i3X, Molecular Devices) at 530 nm excitation and 580 emission.
For CE determination, 150 µl of the assay buffer described above, supplemented with bovine liver catalase (45 U/ml) and cholesterol oxidase (1 U/ml), was added to 25 μl of sample and incubated overnight at 37 °C to deplete free cholesterol leaving only cholesterol esters. Then, 75 µl of cholesterol ester detection reagent (1 U/ml cholesterol oxidase, 4 U/ml cholesterol esterase, 24 U/ml horseradish peroxidase, 300 µM Amplex Red) was added. The reaction was incubated at 37 °C for 30 min and the fluorescence signal was measured as described above. Internal standards included samples containing 1 mM of cholesterol and 5 μM of cholesterol oleate in order to verify the completeness of the enzymatic decomposition of free cholesterol as well as assay sensitivity and specificity.

[4] = system: ABCA1 protein; assay: Cell fractionation: ABCA1 in plasma membrane and microsomal fractions of podocytes; type: cell-based, human; settings: ratio; Cpd C 1 µM, Cpd A 5 µM, Cpd G 10 µM; single preparations
Protocol: Lysates, or cell fractions were incubated in Laemmli buffer at 55 °C for 10 min under reducing conditions. A total of 30 μg of protein from cell lysates or one-third of the volume collected in cell fraction preparations was separated by SDS-PAGE in 4–20% gradient gels (Biorad) and proteins were then transferred to PVDF membranes. After blocking with 5% TBS-milk, membranes were probed with primary antibodies overnight at 4 °C. The following primary antibodies were used: mouse anti-ABCA1 (Abcam; 1:1000), rabbit anti-GAPDH antibody (Millipore; 1:10,000), mouse anti-actin (CP01, Millipore 1:10,000), anti-MEK, anti-ERp72, anti-V5 and anti-Na^+/K^+ ATPase (Cell Signaling; all 1:1000), and rabbit anti-OSBPL7 (Sigma; 1:1000). After washing, membranes were incubated with anti-rabbit or and anti-mouse IgG-HRP antibodies (Promega, 1:10,000). Signals were detected after incubation with Westernbright ECL HRP substrate (Advansta) and luminescence signals were captured with Azure C600 Gel Imaging workstation (Azure Biosystems Inc, USA) or X-ray films.
Differentiated podocytes were treated with compounds Cpd C (1 μM), Cpd A (5 μM), or Cpd G (10 μM) for 18 h, washed and then harvested in ice-cold PBS. Cells were centrifuged at 1000 × g for 5 min, the supernatant was carefully removed, and the pellet resuspended in hypotonic buffer (15 mM KCl, 1.5 mM MgCl2, 10 mM HEPES and 1 mM DTT) supplemented with a protease inhibitor cocktail (Roche). Cells were disrupted with a glass douncer, and sucrose was added to achieve final concentration of 227 mM. Cell lysates were centrifuged at 1000 × g for 30 min at 4 °C. The supernatant was then transferred to a new tube and centrifuged at 10,000 × g for 15 min at 4 °C. The pellet, containing the microsomal fraction was collected and the supernatant was transferred to a new tube and centrifuged at 100,000 × g for 1 h at 4 °C. The pelleted plasma membrane fraction was collected and the supernatant, containing the organelle-free cytosolic fraction, was concentrated in Vivaspin 500 filter columns. Western blot was performed using antibodies for ABCA1 and specific markers for each membrane fraction as described above. Na^+/K^+ ATPase was used to identify the plasma membrane fraction, ERp72 as a marker for the microsomal-enriched fraction, and MEK as the control for the non-membranous cytosolic fraction.

[5] = 28 days treatment, 25th quartile
[6] = 28 days treatment, 75th quartile
[7] = 28 days treatment, group maximum
[8] = 28 days treatment, group median
[9] = 28 days treatment, group minimum
[10] = 28 days treatment, individual mouse values

Cc1oc(-c2cccc(C(F)(F)F)c2)nc1Cn1c(C)cc2cc(C(O)(C(F)(F)F)C(F)(F)F)ccc21 [Cpd C, reference compound]
ALT, Median (IQR) [1]: 146 (71-682) U/L | ALT, Range [1]: 68-838 U/L | AST, Median (IQR) [1]: 165 (104-371) U/L | AST, Range [1]: 90-433 U/L | HTC, Median (IQR) [1]: 55 (45-64) % | HTC, Range [1]: 43-65% | Hgb, Median (IQR) [1]: 13.3 g/dL | Hgb, Range [1]: 11 to 15.9 g/dL | WBC, Median (IQR) [1]: 6.2 (5.5-7.9) x103cells/µL | WBC, Range [1]: 5.4-8.3 x103cells/µL | ALT, QR(25) [1, 5]: 76.25 U/L | AST, QR(25) [1, 5]: 131.25 U/L | HTC, QR(25) [1, 5]: 46% | Hgb, QR(25) [1, 5]: 12.5 g/dL | WBC, QR(25) [1, 5]: 6.4 x 10^3 cells/ul | ALT, QR(75) [1, 6]: 369.25 U/L | AST, QR(75) [1, 6]: 246.25 U/L | HTC, QR(75) [1, 6]: 64% | Hgb, QR(75) [1, 6]: 15.4 g/dL | WBC, QR(75) [1, 6]: 10.3 x 10^3 cells/ul | ALT, Max [1, 7]: 838 U/L | AST, Max [1, 7]: 433 U/L | HTC, Max [1, 7]: 65% | Hgb, Max [1, 7]: 15.9 g/dL | WBC, Max [1, 7]: 11.6 x 10^3 cells/ul | ALT, Median [1, 8]: 146 U/L | AST, Median [1, 8]: 164.5 U/L | HTC, Median [1, 8]: 55% | Hgb, Median [1, 8]: 13.3 g/dL | WBC, Median [1, 8]: 6.7 x 10^3 cells/ul | ALT, Min [1, 9]: 68 U/L | AST, Min [1, 9]: 90 U/L | HTC, Min [1, 9]: 43% | Hgb, Min [1, 9]: 11 g/dL | WBC, Min [1, 9]: 5.4 x 10^3 cells/ul | Alanine Aminotransferase (ALT) [1, 10]: 213 U/dL and 68 U/dL and 79 U/dL and 838 U/dL | Aspartate Aminotransferase (AST) [1, 10]: 184 U/dL and 90 U/dL and 145 U/dL and 433 U/dL | Hematocrit HTC [1, 10]: 64% and 65% and 55% and 46% and 43% and 44% | White Blood Cells WBC [1, 10]: 10.3 x 10^3 cells/ul and 6.7 x 10^3 cells/ul and 6.5 x 10^3 cells/ul and 5.9 x 10^3 cells/ul and 5.4 x 10^3 cells/ul and 8.3 x 10^3 cells/ul and 6.4 x 10^3 cells/ul and 11.6 x 10^3 cells/ul | Effect on weight loss ([2]; 28 days after ADR): no significant effect to prevent weight loss | ACR, median ([2]; 28 days after ADR, Cpd A 30, Cpd G 100, Cpd C 10 mg/Kg, group median): 6.591 mg albumin/mg creatinine | Reduction in ACR ([2]; Cpd C 10 mg/Kg, 28 days): more variable reduction in ACR | Weight (d28) ([2]; animal weight when therapy finished, single animals): 19 and 13 and 20 and 16 and 22 and 17 and 18 | Weight Change (as % of weight at day 0), Median ([2]; day 28 after ADR, Cpd A 30, Cpd G 100, Cpd C 10 mg/Kg): -5% | Weight Change (as % of weight at day 0) ([2]; day 28 after ADR, Cpd A 30, Cpd G 100, Cpd C 10 mg/Kg, single animals): 5.3% and 5.6% and -15.8% and 4.8% and -15% and 0% and -10% and -5% and -27.8% | ACR values (mg Albumin / mg Creatinine) ([2]; spot urine 28 days after ADR, oral daily Cpd A 30, Cpd G 100, Cpd C 10 mg/Kg, single animals): 97.01 mg Albumin / mg Creatinine and 0.196 mg Albumin / mg Creatinine and 5.6 mg Albumin / mg Creatinine and 6.591 mg Albumin / mg Creatinine and 5.609 mg Albumin / mg Creatinine and 28.989 mg Albumin / mg Creatinine and 87.25 mg Albumin / mg Creatinine and 19.88 mg Albumin / mg Creatinine and 5.463 mg Albumin / mg Creatinine | KIDNEY CORTEX TOTAL CHOLESTEROL ([3]; ADR model, individual animals): 169.86 nmol Chol./mg protein and 129.15 nmol Chol./mg protein and 254.63 nmol Chol./mg protein and 268.95 nmol Chol./mg protein and 152.74 nmol Chol./mg protein and 180.44 nmol Chol./mg protein and 182.39 nmol Chol./mg protein and 272.02 nmol Chol./mg protein and 254.98 nmol Chol./mg protein | KIDNEY CORTEX TRIGLYCERIDES ([3]; ADR model, individual animals): 43.01 nmol Triglyceride /mg protein and 83.04 nmol Triglyceride /mg protein and 58.7 nmol Triglyceride /mg protein and 29.67 nmol Triglyceride /mg protein and 36.87 nmol Triglyceride /mg protein and 243.76 nmol Triglyceride /mg protein and 196.92 nmol Triglyceride /mg protein and 133.68 nmol Triglyceride /mg protein and 574.71 nmol Triglyceride /mg protein | Animals with higher triglyceride content in kidney cortexes ([3]; ADR, Cpd C 10 mg/Kg): about 30% | MICROSOMAL FRACTION:ABCA1/ERp72 [4]: 1.10 and 1.82 and 1.06 | PLASMA MEMBRANE FRACTION: ABCA1/NaK ATPase [4]: 1.10 and 0.65 and 0.77 and 1.14
